# Results from US5859026A, “Quinoline carboxylic acid” (priority 1995, dated 1999).
# Like-named read-outs stand apart in the source and are kept apart here.
# What was measured:
# A. calcoaceticus HNR904 = test: Antibacterial activity (MIC), clinically isolated strain; assay type: cell-based; details: Acinetobacter calcoaceticus; clinical isolate A. calcoaceticus HNR904, Gram -, 10^6 viable cells per ml; read-out: minimum inhibitory concentration (MIC)
# Excerpt: (§1) 1. Antibacterial spectrum against standard strains and clinically isolated strains
# K. pneumoniae HNR858 = test: as above; assay type: cell-based; details: Klebsiella pneumoniae; clinical isolate K. pneumoniae HNR858, Gram -, 10^6 viable cells per ml; read-out: minimum inhibitory concentration (MIC)
# Excerpt: as §1
# S. aureus HPC527 = test: as above; assay type: cell-based; details: Staphylococcus aureus; clinical isolate S. aureus HPC527, Gram +, 10^6 viable cells per ml; read-out: minimum inhibitory concentration (MIC)
# Excerpt: as §1
# E. cloacae HNR1946 = test: as above; assay type: cell-based; details: Enterobacter cloacae; clinical isolate E. cloacae HNR1946, Gram -, 10^6 viable cells per ml; read-out: minimum inhibitory concentration (MIC)
# Excerpt: as §1
# A. calcoaceticus HNR916 = test: as above; assay type: cell-based; details: Acinetobacter calcoaceticus; clinical isolate A. calcoaceticus HNR916, Gram -, 10^6 viable cells per ml; read-out: minimum inhibitory concentration (MIC)
# Excerpt: as §1
# E. faecalis HPC975 = test: as above; assay type: cell-based; details: Enterococcus faecalis; clinical isolate E. faecalis HPC975, Gram +, 10^6 viable cells per ml; read-out: minimum inhibitory concentration (MIC)
# Excerpt: as §1
# E. faecalis HPC948 = test: as above; assay type: cell-based; details: Enterococcus faecalis; clinical isolate E. faecalis HPC948, Gram +, 10^6 viable cells per ml; read-out: minimum inhibitory concentration (MIC)
# Excerpt: as §1
# E. faecalis HPC984 = test: as above; assay type: cell-based; details: Enterococcus faecalis; clinical isolate E. faecalis HPC984, Gram +, 10^6 viable cells per ml; read-out: minimum inhibitory concentration (MIC)
# Excerpt: as §1
# S. marcescens HNR1792 = test: as above; assay type: cell-based; details: Serratia marcescens; clinical isolate S. marcescens HNR1792, Gram -, 10^6 viable cells per ml; read-out: minimum inhibitory concentration (MIC)
# Excerpt: as §1
# E. cloacae HNR1939 = test: as above; assay type: cell-based; details: Enterobacter cloacae; clinical isolate E. cloacae HNR1939, Gram -, 10^6 viable cells per ml; read-out: minimum inhibitory concentration (MIC)
# Excerpt: as §1
# A. calcoaceticus HNR939 = test: as above; assay type: cell-based; details: Acinetobacter calcoaceticus; clinical isolate A. calcoaceticus HNR939, Gram -, 10^6 viable cells per ml; read-out: minimum inhibitory concentration (MIC)
# Excerpt: as §1
# K. pneumoniae HNR828 = test: as above; assay type: cell-based; details: Klebsiella pneumoniae; clinical isolate K. pneumoniae HNR828, Gram -, 10^6 viable cells per ml; read-out: minimum inhibitory concentration (MIC)
# Excerpt: as §1
# K. pneumoniae HNR869 = test: as above; assay type: cell-based; details: Klebsiella pneumoniae; clinical isolate K. pneumoniae HNR869, Gram -, 10^6 viable cells per ml; read-out: minimum inhibitory concentration (MIC)
# Excerpt: as §1
# S. aureusHPC292 = test: as above; assay type: cell-based; details: Staphylococcus aureus, read-out: minimum inhibitory concentration (MIC)
# Excerpt: as §1
# E. cloacae HNR1941 = test: as above; assay type: cell-based; details: Enterobacter cloacae; clinical isolate E. cloacae HNR1941, Gram -, 10^6 viable cells per ml; read-out: minimum inhibitory concentration (MIC)
# Excerpt: as §1
# S. marcescens HNR1544 = test: as above; assay type: cell-based; details: Serratia marcescens; clinical isolate S. marcescens HNR1544, Gram -, 10^6 viable cells per ml; read-out: minimum inhibitory concentration (MIC)
# Excerpt: as §1
# S. aureus HPC308 = test: as above; assay type: cell-based; details: Staphylococcus aureus; clinical isolate S. aureus HPC308, Gram +, 10^6 viable cells per ml; read-out: minimum inhibitory concentration (MIC)
# Excerpt: as §1
# S. marcescens HNR1767 = test: as above; assay type: cell-based; details: Serratia marcescens; clinical isolate S. marcescens HNR1767, Gram -, 10^6 viable cells per ml; read-out: minimum inhibitory concentration (MIC)
# Excerpt: as §1
# male ICR mice = test: Induction of convulsions, intraperitoneal (i.p.) administration; assay type: in vivo, mouse; details: 100 mg/kg i.p., 30 minutes after oral fenbufen 100 mg/kg
# Excerpt: 4. The induction of convulsions
# 1) Intraperitoneal (i.p.) administration
# S. marcescens IAM 1184 = test: Antibacterial activity (MIC), standard strain; assay type: cell-based; details: Serratia marcescens, IAM1184; standard strain S. marcescens IAM 1184, Gram -, 10^6 viable cells per ml; read-out: minimum inhibitory concentration (MIC)
# Excerpt: as §1
# K. pneumoniae PCI-602 = test: Antibacterial activity (MIC), standard strain; assay type: cell-based; details: Klebsiella pneumoniae, PCI602; standard strain K. pneumoniae PCI-602, Gram -, 10^6 viable cells per ml; read-out: minimum inhibitory concentration (MIC)
# Excerpt: as §1
# E. coli NIHJ JC-2 = test: Antibacterial activity (MIC), standard strain; assay type: cell-based; details: Escherichia coli, NIHJJC2; standard strain E. coli NIHJ JC-2, Gram -, 10^6 viable cells per ml; read-out: minimum inhibitory concentration (MIC)
# Excerpt: as §1
# S. aureus FDA 209P JC-1 = test: Antibacterial activity (MIC), standard strain; assay type: cell-based; details: Staphylococcus aureus, FDA209P; standard strain S. aureus FDA 209P JC-1, Gram +, 10^6 viable cells per ml; read-out: minimum inhibitory concentration (MIC)
# Excerpt: as §1
# Male Wistar rats = test: Induction of convulsions, intracerebroventricular (i.c.v.) administration; assay type: in vivo, rat; details: 30 minutes after i.p. fenbufen 50 mg/kg, observed at least 4 hours
# Protocol: 2) Intracerebroventricular (i.c.v.) administration
# Male Wistar rats (weighing 180-220 g) were anesthetized with sodium pentobarbital at 45 mg/kg, i.p., and then the head of the rat was fixed in a stereotaxic apparatus. A stainless steel guide cannula for intracerebroventricular injectionin in 0.6 mm diameter was implanted as a guide cannula so as to be positioned at 1.5 mm above the left lateral cerebroventricle (A:6.2,R:1.0,H:+1.0) according to the brain atlas of De Groot (1959). The guide cannula was fixed by using a dental cement, and then closed with a stainless steel stylet in 0.3 mm diameter. Potassium penicillin G (10,000 units) were subcutaneously administered to prevent an infection. The rats were subjected to the experiments after recovery time for several days from the surgery.
# For the measurement of the induction of convulsions, 50 mg/kg of fenbufen was intraperitoneally administered, and then the test compound was intracerebroventricularly administered after 30 minutes from the administration of fenbufen by means of a stainless steel cannula in 0.3 mm diameter that was connected with a polyethylene catheter and adjusted so as to be 1.5 mm longer than the guide cannula for an administration at an accurate position of cerebroventricle (H:+1.0). […] After the completion of the above experiment, the administered positions were confirmed by intraventricularly injecting 10 μl of 1% Evans blue to each of the rats, and followed by sectioning the brains.
# Male Hartley guinea pigs = test: Phototoxicity; assay type: in vivo, guinea pig; details: 10 mg/kg intravenous, UV exposure 90 minutes, observed 24 hours after irradiation; animals with erythemas/animals tested
# Protocol: Male Hartley guinea pigs were intravenously administered with test compounds at a dose of 10 mg/kg, and then immediately exposed to WVA on their backs for 90 minutes. Erythemas on the UV irradiated skin were observed 24 hours after the irradiation.
# E. colacae 963 = test: Antibacterial activity (MIC), standard strain; assay type: cell-based; details: Enterobacter cloacae; standard strain E. colacae 963, Gram -, 10^6 viable cells per ml; read-out: minimum inhibitory concentration (MIC)
# Protocol: as §1
# Antibacterial activities (minimum inhibitory concentration: MIC) were determined according to the standard method of the Japan Society of Chemotherapy (Chemotherapy (Tokyo), 29 (1), 76, 1981) by using standard strains and strains isolated from patients of infectious disease (clinically isolated strains) and applying 10^6 viable cells per ml. […].
# [1] = animals with convulsions/animals tested
SMILES,MIC (A. calcoaceticus HNR904),MIC (K. pneumoniae HNR858),MIC (S. aureus HPC527),MIC (E. cloacae HNR1946),MIC (A. calcoaceticus HNR916),MIC (E. faecalis HPC975),MIC (E. faecalis HPC948),MIC (E. faecalis HPC984),MIC (S. marcescens HNR1792),MIC (E. cloacae HNR1939),MIC (A. calcoaceticus HNR939),MIC (K. pneumoniae HNR828),MIC (K. pneumoniae HNR869),MIC (E. cloacae HNR1941),MIC (S. marcescens HNR1544),MIC (S. aureus HPC308),MIC (S. marcescens HNR1767),MIC (S. marcescens IAM 1184),MIC (K. pneumoniae PCI-602),MIC (E. coli NIHJ JC-2),other results
"Cc1c(N2CCNCC2)c(F)c(N)c2c(=O)c(C(=O)O)cn(C3CC3)c12 [Reference Compound B, 5-amino-1-cyclopropyl-6-fluoro-1,4-dihydro-8-methyl-4-oxo-7-piperazinylquinoline-3-carboxylic acid, reference compound]",50 µg/mL,0.78 µg/mL,0.1 µg/mL,0.78 µg/mL,0.1 µg/mL,12.5 µg/mL,6.25 µg/mL,0.39 µg/mL,6.25 µg/mL,0.78 µg/mL,3.13 µg/mL,12.5 µg/mL,6.25 µg/mL,25 µg/mL,0.1 µg/mL,6.25 µg/mL,50 µg/mL,0.2 µg/mL,0.006 µg/mL,0.05 µg/mL,"MIC (S. aureusHPC292): 25 µg/mL; Induction of convulsions, i.p. (in words) (male ICR mice): inducing actions of convulsions were not noticeable; sedative symptoms considered as precursory symptoms of convulsions, i.p. (male ICR mice): All of the animals exhibited sedative symptoms; Induction of convulsion, i.p. (number of mice with convulsions) (male ICR mice; [1]): 0/6; sedative symptoms considered as precursory symptoms of convulsions, i.p. (male ICR mice; listed as reference compound B): all of the animals exhibited sedative symptoms; MIC (S. aureus FDA 209P JC-1): 0.1 µg/mL; Induction of convulsions, i.c.v. (in words) (Male Wistar rats): convulsions were observed in all of the animals (each three animals); Induction of convulsion, i.c.v. (number of rats with convulsions) (Male Wistar rats; [1]): 3/3; Phototoxicity (number of guinea pigs with erythemas) (Male Hartley guinea pigs): 0/5; MIC (E. colacae 963): 0.1 µg/mL"
"CC[C@H]1CN(c2c(F)c(N)c3c(=O)c(C(=O)O)cn(C4CC4)c3c2C)C[C@H]1N [Compound 2, 5-amino-7-((3S,4S)-3-amino-4-ethyl-1-pyrrolidinyl)-1-cyclopropyl-6-fluoro-1,4-dihydro-8-methyl-4-oxoquinoline-3-carboxylic acid]",3.13 µg/mL,0.2 µg/mL,0.006 µg/mL,0.2 µg/mL,0.012 µg/mL,0.78 µg/mL,0.2 µg/mL,0.05 µg/mL,1.56 µg/mL,0.2 µg/mL,0.2 µg/mL,3.13 µg/mL,1.56 µg/mL,6.25 µg/mL,0.05 µg/mL,0.1 µg/mL,12.5 µg/mL,0.1 µg/mL,≤ 0.0015 µg/mL,0.012 µg/mL,"MIC (S. aureusHPC292; clinical isolate S. aureus HPC292, Gram +, 10^6 viable cells per ml): 0.78 µg/mL; MIC (S. aureus FDA 209P JC-1): 0.006 µg/mL; MIC (E. colacae 963): 0.025 µg/mL"
